Experimental findings from ChEMBL document CHEMBL1201862, “PubChem BioAssay data set” (2004) are described below.

Structures are written as SMILES. Active and inactive are the calls of the source.

The nature of assay [1]: inhibitors of firefly luciferase expression or activity, dose response, H4 neuroglioma cells, luminescence (AID 1990). Format: functional, cell-based.
Assay [2] is described as follows: Luminescence Cell-Based Dose Response HTS to Identify Inhibitors of 5'UTR Stem-Loop Driven Prion Protein mRNA Translation in H4 Neuroglioblastoma Cells. [Related pubchem assays: 1827 (Project Summary), 1813 (Primary HTS)]. Format: functional.
Assay [3] is described as follows: inhibitors of SNCA 5'UTR-driven reporter translation, confirmation, H4 neuroglioma cells, luminescence (AID 1988). Format: functional, cell-based.
The target of another assay is Cytochrome P450 2D6 (Homo sapiens, UniProt P10635).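 Note: CYP2D6 member of a cytochrome P450 panel assay.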
Cytochrome P450 2D6, sequence (P10635 whole entry): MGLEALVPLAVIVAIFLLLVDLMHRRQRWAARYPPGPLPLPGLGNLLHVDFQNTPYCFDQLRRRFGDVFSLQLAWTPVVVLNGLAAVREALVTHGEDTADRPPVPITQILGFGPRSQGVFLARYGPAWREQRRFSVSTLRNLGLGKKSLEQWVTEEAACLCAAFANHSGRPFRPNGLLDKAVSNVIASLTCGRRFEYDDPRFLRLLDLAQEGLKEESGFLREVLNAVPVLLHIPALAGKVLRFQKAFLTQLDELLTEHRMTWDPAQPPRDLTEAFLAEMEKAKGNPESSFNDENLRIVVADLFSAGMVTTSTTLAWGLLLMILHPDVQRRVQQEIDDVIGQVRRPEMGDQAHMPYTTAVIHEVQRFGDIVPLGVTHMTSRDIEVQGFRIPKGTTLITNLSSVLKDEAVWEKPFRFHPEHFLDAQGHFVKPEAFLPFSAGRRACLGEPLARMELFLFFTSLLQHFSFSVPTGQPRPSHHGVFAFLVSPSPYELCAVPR
For the next assay, the target named is T1, Cytochrome P450 1A2 (Homo sapiens, UniProt P05177).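 Note: PubChem cytochrome P450 panel assay, CYP1A2 panel member.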
T1 sequence (P05177 whole entry): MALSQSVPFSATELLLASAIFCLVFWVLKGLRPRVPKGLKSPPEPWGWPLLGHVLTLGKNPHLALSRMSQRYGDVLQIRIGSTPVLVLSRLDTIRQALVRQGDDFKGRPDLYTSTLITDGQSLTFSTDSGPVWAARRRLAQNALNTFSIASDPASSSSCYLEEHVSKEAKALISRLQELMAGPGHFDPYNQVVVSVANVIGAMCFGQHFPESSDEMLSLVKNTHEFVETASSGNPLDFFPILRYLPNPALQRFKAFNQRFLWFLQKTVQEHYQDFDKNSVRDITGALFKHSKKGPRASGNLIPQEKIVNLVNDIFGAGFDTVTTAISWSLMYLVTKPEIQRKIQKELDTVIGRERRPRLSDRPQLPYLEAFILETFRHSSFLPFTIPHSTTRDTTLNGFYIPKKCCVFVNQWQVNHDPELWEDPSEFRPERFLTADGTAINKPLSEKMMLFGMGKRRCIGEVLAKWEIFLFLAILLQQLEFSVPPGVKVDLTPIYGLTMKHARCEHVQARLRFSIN

The next assay has as its target Cytochrome P450 3A4 (Homo sapiens, UniProt P08684).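 Note: CYP3A4 tested as one member of a cytochrome P450 panel screen.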
The target of another assay is Cytochrome P450 2C19 (Homo sapiens, UniProt P33261). The assay is described as follows: Cytochrome panel assay with activity outcomes. Panel member name: p450-cyp2c19 Compounds with AC50 equal or less than 10 uM are considered active. The note with it: read-out: AC50. Format: functional.
Cytochrome P450 2C19, sequence (P33261 whole entry): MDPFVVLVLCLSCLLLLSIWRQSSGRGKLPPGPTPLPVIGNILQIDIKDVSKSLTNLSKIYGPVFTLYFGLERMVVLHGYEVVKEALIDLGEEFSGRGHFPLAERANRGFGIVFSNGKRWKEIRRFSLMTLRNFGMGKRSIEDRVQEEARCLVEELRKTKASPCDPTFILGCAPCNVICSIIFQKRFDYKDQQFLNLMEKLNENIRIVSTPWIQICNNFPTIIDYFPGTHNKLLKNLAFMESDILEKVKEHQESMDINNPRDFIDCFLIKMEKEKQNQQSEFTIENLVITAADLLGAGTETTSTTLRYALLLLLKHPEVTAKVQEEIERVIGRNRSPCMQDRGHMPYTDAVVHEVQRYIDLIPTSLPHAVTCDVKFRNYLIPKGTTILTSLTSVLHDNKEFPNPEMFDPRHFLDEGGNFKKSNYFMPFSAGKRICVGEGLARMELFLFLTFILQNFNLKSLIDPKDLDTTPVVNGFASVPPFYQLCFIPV

Cytochrome P450 3A4, sequence (P08684 whole entry): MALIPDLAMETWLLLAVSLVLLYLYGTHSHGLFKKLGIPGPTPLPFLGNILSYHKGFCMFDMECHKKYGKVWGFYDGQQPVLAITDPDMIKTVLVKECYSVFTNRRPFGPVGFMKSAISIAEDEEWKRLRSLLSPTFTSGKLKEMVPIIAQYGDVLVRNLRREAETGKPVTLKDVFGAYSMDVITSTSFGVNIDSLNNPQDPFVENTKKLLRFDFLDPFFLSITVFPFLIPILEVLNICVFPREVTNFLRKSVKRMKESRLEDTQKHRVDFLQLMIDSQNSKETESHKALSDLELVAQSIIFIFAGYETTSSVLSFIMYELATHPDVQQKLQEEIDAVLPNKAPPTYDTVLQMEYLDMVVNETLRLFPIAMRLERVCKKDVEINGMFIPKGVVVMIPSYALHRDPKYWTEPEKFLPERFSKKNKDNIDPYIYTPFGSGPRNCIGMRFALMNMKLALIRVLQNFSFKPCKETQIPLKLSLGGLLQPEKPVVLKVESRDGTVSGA

What is called EC50 is the midpoint of the concentration-response curve. Take `COc1ccc(NC(=O)CNC(=O)Cn2c(C)cc3ccccc3c2=O)c(OC)c1`: the EC50 in assay [1], in assay [2] and in assay [3] was > 120 µM (not active) throughout.

Regarding `CCOc1ccccc1NC(=O)CCn1cccc1`, the EC50 in assay [1], in assay [2] and in assay [3] was > 120 µM (not active) in each case.

The term AC50 denotes the midpoint of the concentration-response curve, whichever way the signal moves. On to `COc1ccc(Oc2nccc(-c3ccc(F)cc3)c2C#N)cc1`, for which the values for the half-maximal activity concentration (AC50) at Cytochrome P450 2D6, on Cytochrome P450 1A2 and at Cytochrome P450 3A4 were 0.00562 µM (inconclusive), 5.01 µM (inconclusive) and 12.6 µM (inconclusive), respectively.

Regarding `Cc1ccccc1NS(=O)(=O)c1ccc2ncc(C(=O)NCCCN3CCOCC3)c(O)c2c1`, the AC50 is 25.1 µM (inconclusive) at Cytochrome P450 2C19, 20 µM (inconclusive) on Cytochrome P450 2D6 and 39.8 µM (inconclusive) at Cytochrome P450 1A2.

As to `CN(C)C(=O)c1cn(N(C)c2ncc(C(F)(F)F)cc2Cl)c(=O)c2ccccc12`, the AC50 on Cytochrome P450 2D6 is 25.1 µM (inconclusive); on Cytochrome P450 3A4, 10 µM (inconclusive).

Turning to `CCS(=O)(=O)c1ccc2oc(Nc3cc(C)cc(C)c3)nc2c1`, the half-maximal activity concentration (AC50) was 25.1 µM (inconclusive) on Cytochrome P450 2D6 and 28.2 µM (inconclusive) on Cytochrome P450 3A4.

Take `O=C(C1CCC(=O)N1Cc1ccccc1Cl)N1CCN(c2cccc(Cl)c2)CC1` (stereo not drawn): the figures for the AC50 on Cytochrome P450 2D6 and at Cytochrome P450 3A4 were 14.1 µM (inconclusive) and 0.0355 µM (inconclusive), respectively.

As for `Cc1onc(-c2ccccc2)c1C(=O)NCCc1c[nH]c2ccccc12`, the AC50 at Cytochrome P450 2D6 was 12.6 µM (inconclusive).

Consider `COC(=O)c1cccc(NC(=O)NC(=O)c2ccccc2Cl)c1`, for which the EC50 in assay [1] was 2 µM (active); in assay [2] it was 2.84 µM (active); in assay [3], 7.75 µM (active).

In the case of `Cn1cccc1C(=O)N1CCC2(CCCN(C(c3ccccc3)c3ccccc3)C2)CC1`, the values for the AC50 at Cytochrome P450 2C19, on Cytochrome P450 2D6 and on Cytochrome P450 3A4 were 39.8 µM (inconclusive), 10 µM (inconclusive) and 6.31 µM (inconclusive), respectively.

Regarding `O=C(NCCN1CCOCC1)c1csc2c1CCCCC2`, the AC50 at Cytochrome P450 2D6 is 17.8 µM (inconclusive); at Cytochrome P450 1A2 it was 20 µM (inconclusive).

Take `CCCCCn1c(SCCCC)nc2c1c(=O)[nH]c(=O)n2C`: the EC50 was 17.1 µM (active) in assay [1], > 120 µM (not active) in assay [2] and > 60 µM (not active) in assay [3].

Regarding `C[C@]1(CC(=O)O)O[C@H]2CCCCC[C@H]2O1.NCc1ccccc1`, the figures for the AC50 on Cytochrome P450 2D6 and at Cytochrome P450 3A4 were 3.16 µM (inconclusive) and 0.251 µM (inconclusive), respectively.

As to `COc1ccc(OC)c(C(=O)N2CCC(n3nccc3NC(=O)CC(C)C)CC2)c1`, the EC50 in assay [1], in assay [2] and in assay [3] was > 120 µM (not active) in each case.

For the molecule `CC(=O)Nc1ccc(S(=O)(=O)N(Cc2cc3ccc(C)cc3nc2O)CC2CCCO2)cc1` (stereo not drawn), the EC50 was 16.8 µM (active) in assay [1], 60.6 µM (active) in assay [2] and 11.8 µM (active) in assay [3].

Turning to `COC(=O)[C@@]1(Cc2ccc(OC)cc2)[C@H]2c3cc(C(=O)N(C)C)n(Cc4ccc(C)o4)c3C[C@H]2CN1C(=O)c1ccccc1`, on Cytochrome P450 2D6, the AC50 is 39.8 µM (inconclusive).

As for `CN1CCN(c2ncc3nc(-c4ccccc4)c(=O)n(CCc4ccccc4)c3n2)CC1`, the concentration at half-maximal activity (AC50) at Cytochrome P450 2D6 is 39.8 µM (inconclusive).

As to `CC(C)n1cc(CN2CCCC(C(=O)Nc3cccc(-c4cc5ccccc5[nH]4)c3)C2)cn1` (stereo not drawn), the results for the EC50 in assay [1], in assay [2] and in assay [3] were 14.5 µM (active), > 120 µM (not active) and 30.6 µM (active), respectively.

Take `c1cc(CN2CCCC3(CCNCC3)C2)ccn1`: the half-maximal activity concentration (AC50) at Cytochrome P450 2C19 and on Cytochrome P450 2D6 was 25.1 µM (inconclusive) throughout.

As to `COC(=O)Cc1csc(N/C=C2/C(=O)N(c3cccc(C(F)(F)F)c3)C(=O)c3ccccc32)n1`, the EC50 is > 120 µM (not active) in assay [1], > 120 µM (not active) in assay [2] and 11.3 µM (active) in assay [3].
